In patent US20020192776A1, “Heliothis glutamate receptor” (Aventis Cropscience SA, priority 2000, published 2002):

System: lepidopteran glutamate-gated chloride channel
Assay: two-electrode voltage clamp recordings of Xenopus oocytes injected with HEGE2 mRNA
Format: cell-based, Heliothis virescens
Conditions: held at -80 mV
Method: Messenger RNA was produced from the cDNA template of HEGE2 by in vitro transcription with the Ambion mMESSAGE mMACHINE IN VITRO TRANSCRIPTION KIT (Ambion, Inc.). The mRNA was injected into oocytes by the following procedure.
Frogs were anesthetized in a 2 gram/liter solution of 3-amino benzoic acid ethyl ester for thirty minutes, after which oocytes were surgically removed from the abdominal cavity. Follicles were digested by collagenase treatment under sterile conditions by standard methods. Oocytes were injected with 50 nl of 1 μg/μl mRNA by glass electrodes.
After a 24 hr incubation, two-electrode voltage clamp recordings were made. Recordings were made using a Dagan, TEV200 voltage clamp interfaced with a MacLab4 data acquisition system running the MacLab Chart data acquisition/analysis software. Oocytes were positioned under a dissection scope under constant perfusion with frog saline (96 mM of NaCl, 2 mM of KCl, 1 mM of MgCl2, 1.8 mM of CaCl2 and 10 mM of HEPES, pH 7.5) using a Razel syringe perfusion pump. Model A99-FY at 93.9 cc/hr. Glass electrodes (A-M Systems. Inc. 1.5 mm×0.86 mm) were filled with 3 M KCl and resistance (a function of the diameter of the channel opening) was measured to be between 0.7 and 1.5 mega ohms. Both electrodes were inserted into the oocyte at opposite sides, the resting potential was recorded and the voltage clamp turned on. […]

Compound | activation of current in oocytes (One micromolar Ivermectin phosphate, Xenopus oocytes expressing HEGE2) | activation of membrane (chloride) current (100 uM glutamate, Xenopus oocytes injected with 50 ng of HEGE2 mRNA, FIG. 1)
Ivermectin phosphate | slowly and irreversibly activated current | –
N[C@@H](CCC(=O)O)C(=O)O [glutamate] | – | activate a membrane current
